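In this assay, cells in 96-well plates receive the compound at five concentrations for 48 hours. Endpoints are linearly interpolated between the surrounding concentrations. GI50 is the concentration that inhibits growth by half. TGI marks complete inhibition of growth.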
Columns and labels:
Experiment in all cases: growth of human tumour cells (NCI), 48 h
[1] = system: 786-0 renal
[2] = system: A498 renal
[3] = system: A549 NSCLC
[4] = system: ACHN renal
[5] = system: BT-549 breast
[6] = system: CAKI-1 renal
[7] = system: CCRF-CEM leukemia
[8] = system: COLO 205 colon
[9] = system: DU-145 prostate
[10] = system: EKVX NSCLC
[11] = system: HCC-2998 colon
[12] = system: HCT-116 colon
[13] = system: HCT-15 colon
[14] = system: HL-60(TB) leukemia
[15] = system: HOP-62 NSCLC
[16] = system: HOP-92 NSCLC
[17] = system: HS 578T breast
[18] = system: HT29 colon
[19] = system: IGROV1 ovarian
[20] = system: K-562 leukemia
[21] = system: KM12 colon
[22] = system: LOX IMVI melanoma
[23] = system: M14 melanoma
[24] = system: MALME-3M melanoma
[25] = system: MCF7 breast
[26] = system: MDA-MB-231 breast
[27] = system: MDA-MB-435
[28] = system: MDA-N
[29] = system: MOLT-4 leukemia
[30] = system: NCI-H226 lung
[31] = system: NCI-H23 lung
[32] = system: NCI-H460 lung
[33] = system: NCI-H522 lung
[34] = system: NCI/ADR-RES ovarian
[35] = system: OVCAR-3 ovarian
[36] = system: OVCAR-4 ovarian
[37] = system: OVCAR-5 ovarian
[38] = system: OVCAR-8 ovarian
[39] = system: PC-3 prostate
[40] = system: RXF 393 renal
[41] = system: SF-268 CNS
[42] = system: SK-MEL-2 melanoma
[43] = system: SK-MEL-28 melanoma
[44] = system: SK-MEL-5 melanoma
[45] = system: SK-OV-3 ovarian
[46] = system: SN12C renal
[47] = system: SNB-19 CNS
[48] = system: SNB-75 CNS
[49] = system: SR leukemia
[50] = system: SW-620 colon
[51] = system: T-47D breast
[52] = system: TK-10 renal
[53] = system: U251 CNS
[54] = system: UACC-257 melanoma
[55] = system: UACC-62 melanoma
[56] = system: UO-31 renal
[57] = system: RPMI-8226 leukemia
[58] = system: SF-295 CNS
[59] = system: SF-539 CNS

`CCCCCCCCCCCCCCCCOP(=O)(O)OP(=O)(O)OCC1OC(n2cnc3c(N)ncnc32)C(O)C1O` (stereo not drawn) was tested, and the TGI [1] was > 100 µM, the TGI [2] was > 100 µM and the TGI [3] was > 100 µM. The TGI [4] was > 100 µM, the TGI [5] was 36.9 µM and the TGI [6] was > 100 µM. The TGI [7] was 86.6 µM, the TGI [8] was > 100 µM and the TGI [9] was > 100 µM. For the same molecule, the TGI [10] was > 100 µM, the TGI [11] was > 100 µM and the TGI [12] was > 100 µM. The TGI [13] was > 100 µM, the TGI [14] was > 100 µM and the TGI [15] was > 100 µM. The TGI [16] was 36.7 µM, the TGI [17] was > 100 µM and the TGI [18] was > 100 µM. The TGI [19] was > 100 µM, the TGI [20] was > 100 µM and the TGI [21] was > 100 µM. For the same molecule, the TGI [22] was > 100 µM, the TGI [23] was > 100 µM and the TGI [24] was > 100 µM. The TGI [25] was > 100 µM, the TGI [26] was > 100 µM and the TGI [27] was > 100 µM. The TGI [28] was > 100 µM, the TGI [29] was > 100 µM and the TGI [30] was > 100 µM. For the same molecule, the TGI [31] was > 100 µM, the TGI [32] was > 100 µM and the TGI [33] was 92.8 µM. The TGI [34] was > 100 µM, the TGI [35] was > 100 µM and the TGI [36] was > 100 µM. For the same molecule, the TGI [37] was 47.4 µM, the TGI [38] was > 100 µM and the TGI [39] was > 100 µM. The TGI [40] was > 100 µM, the TGI [41] was > 100 µM and the TGI [42] was > 100 µM. The TGI [43] was 64 µM, the TGI [44] was > 100 µM and the TGI [45] was > 100 µM. The TGI [46] was > 100 µM, the TGI [47] was > 100 µM and the TGI [48] was 61.8 µM. For the same molecule, the TGI [49] was 78.3 µM, the TGI [50] was > 100 µM and the TGI [51] was > 100 µM. For the same molecule, the TGI [52] was > 100 µM, the TGI [53] was > 100 µM and the TGI [54] was > 100 µM. The TGI [55] was > 100 µM and the TGI [56] was > 100 µM.
With `O=C1CC(C(O)C(O)C(O)CO)CC(=O)N1` (stereo not drawn) the TGI [1] was > 100 µM, the TGI [2] was > 100 µM and the TGI [3] was > 100 µM. The TGI [4] was > 100 µM, the TGI [5] was > 100 µM and the TGI [6] was > 100 µM. The TGI [7] was > 100 µM, the TGI [8] was > 100 µM and the GI50 [9] was > 100 µM. For the same molecule, the TGI [9] was > 100 µM, the TGI [10] was > 100 µM and the TGI [11] was > 100 µM. For the same molecule, the TGI [12] was > 100 µM, the TGI [13] was > 100 µM and the TGI [14] was > 100 µM. For the same molecule, the TGI [15] was > 100 µM, the TGI [16] was > 100 µM and the TGI [17] was > 100 µM. The TGI [18] was > 100 µM, the TGI [19] was > 100 µM and the TGI [20] was > 100 µM. The TGI [21] was > 100 µM, the TGI [22] was > 100 µM and the TGI [23] was > 100 µM. The TGI [24] was > 100 µM, the TGI [25] was > 100 µM and the TGI [26] was > 100 µM. The TGI [27] was > 100 µM, the TGI [28] was > 100 µM and the TGI [29] was > 100 µM. The TGI [30] was > 100 µM, the TGI [31] was > 100 µM and the TGI [32] was > 100 µM. The TGI [33] was > 100 µM, the TGI [34] was > 100 µM and the TGI [35] was > 100 µM. For the same molecule, the TGI [36] was > 100 µM, the TGI [37] was > 100 µM and the TGI [38] was > 100 µM. The TGI [39] was > 100 µM, the TGI [57] was > 100 µM and the TGI [40] was > 100 µM. For the same molecule, the TGI [41] was > 100 µM, the TGI [58] was > 100 µM and the TGI [59] was > 100 µM. The TGI [43] was > 100 µM, the TGI [44] was > 100 µM and the TGI [46] was > 100 µM. The TGI [47] was > 100 µM, the TGI [48] was > 100 µM and the TGI [49] was > 100 µM. For the same molecule, the TGI [50] was > 100 µM, the TGI [51] was > 100 µM and the TGI [52] was > 100 µM. The TGI [53] was > 100 µM, the TGI [54] was > 100 µM and the TGI [56] was > 100 µM.

Reference: PubChem BioAssay (NCI)
